Data published in ChEMBL document CHEMBL5120862, “Novel non-covalent LSD1 inhibitors endowed with anticancer effects in leukemia and solid tumor cellular models” (Eur J Med Chem, 2022).
Activity calls are given as the source filed them. The rule behind the calls is not given here.

Key:
[1] = system: THP-1; assay: Antiproliferative activity against human THP-1 cells assessed as inhibition of cell growth incubated for 72 hrs by CellTiter-Glo luminescent cell viability assay; assay type: functional, cell-based; conditions: THP-1, 72 h
[2] = biological target: T1, LSD1/CoREST complex (Homo sapiens, UniProt O60341); assay: Binding affinity to human LSD1/CoREST assessed as dissociation constant by competitive fluorescence polarization assay; assay type: protein-complex assay
[3] = system: THP-1; assay: Antiproliferative activity against human THP-1 cells assessed as inhibition of cell growth incubated for 24 hrs by CellTiter-Glo luminescent cell viability assay; assay type: functional, cell-based; conditions: THP-1, 24 h
[4] = system: THP-1; assay: Antiproliferative activity against human THP-1 cells assessed as inhibition of cell growth incubated for 144 hrs by CellTiter-Glo luminescent cell viability assay; assay type: functional, cell-based; conditions: THP-1, 144 h
[5] = biological target: T1, LSD1/CoREST complex; assay: Inhibition of human LSD1/CoREST using histone H3 peptide as substrate by fluorescence polarization assay; assay type: protein-complex assay
[6] = system: MDA-MB-231; assay: Antiproliferative activity against human MDA-MB-231 cells assessed as inhibition of cell growth measured after 72 hrs by MTT assay; assay type: functional, cell-based; conditions: MDA-MB-231, 72 h
[7] = biological target: T2, Histone-lysine N-methyltransferase EHMT2 (Homo sapiens, UniProt Q96KQ7); assay: Inhibition of G9a (unknown origin) assessed as reduction in substrate methylation using histone H3 and SAM as substrate measured after 15 to 60 mins by microfluidic capillary electrophoresis analysis
T2 sequence (Q96KQ7 whole entry): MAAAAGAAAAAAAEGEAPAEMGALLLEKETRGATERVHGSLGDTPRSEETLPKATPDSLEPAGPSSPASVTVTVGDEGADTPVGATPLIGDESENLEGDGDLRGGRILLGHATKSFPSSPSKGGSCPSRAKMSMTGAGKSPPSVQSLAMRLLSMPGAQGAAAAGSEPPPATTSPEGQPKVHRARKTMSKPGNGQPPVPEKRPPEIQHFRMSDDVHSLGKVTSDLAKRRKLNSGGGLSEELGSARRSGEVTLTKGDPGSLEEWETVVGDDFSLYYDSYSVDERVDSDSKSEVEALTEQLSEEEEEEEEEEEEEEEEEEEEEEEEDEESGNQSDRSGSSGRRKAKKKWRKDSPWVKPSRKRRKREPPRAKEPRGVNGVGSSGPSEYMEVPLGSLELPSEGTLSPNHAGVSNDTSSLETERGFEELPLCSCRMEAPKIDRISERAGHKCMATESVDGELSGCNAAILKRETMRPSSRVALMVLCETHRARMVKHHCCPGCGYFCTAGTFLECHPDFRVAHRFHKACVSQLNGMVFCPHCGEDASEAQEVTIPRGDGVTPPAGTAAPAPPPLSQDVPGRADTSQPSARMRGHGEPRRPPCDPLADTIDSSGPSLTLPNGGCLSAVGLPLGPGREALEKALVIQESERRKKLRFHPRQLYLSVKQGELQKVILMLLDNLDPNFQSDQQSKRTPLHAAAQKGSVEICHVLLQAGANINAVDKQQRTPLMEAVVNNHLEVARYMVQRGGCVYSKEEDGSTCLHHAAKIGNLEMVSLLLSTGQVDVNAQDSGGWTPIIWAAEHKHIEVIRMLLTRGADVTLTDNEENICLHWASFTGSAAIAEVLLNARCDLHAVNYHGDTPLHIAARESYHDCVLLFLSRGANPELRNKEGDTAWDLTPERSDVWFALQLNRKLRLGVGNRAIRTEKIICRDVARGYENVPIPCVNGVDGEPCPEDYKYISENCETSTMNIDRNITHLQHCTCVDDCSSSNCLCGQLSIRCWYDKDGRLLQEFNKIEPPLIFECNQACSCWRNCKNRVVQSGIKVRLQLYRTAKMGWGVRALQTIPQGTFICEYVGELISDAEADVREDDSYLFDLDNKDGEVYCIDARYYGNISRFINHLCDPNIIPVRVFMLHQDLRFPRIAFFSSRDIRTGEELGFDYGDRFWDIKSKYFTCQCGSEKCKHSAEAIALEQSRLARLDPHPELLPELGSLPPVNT

[8] = Cytotoxicity against HMEC cells assessed as residual cell viability at 1 uM incubated for 72 hrs by MTT assay relative to control; assay type: toxicity, cell-based; conditions: human, read-out: Activity
[9] = system: MV4-11; assay: Antiproliferative activity against human MV4-11 cells assessed as inhibition of cell growth at […] incubated for 72 to 144 hrs by trypan blue staining based analysis; assay type: functional; conditions: dose 2.5 µM, time 72-144 hrs
[10] = biological target: Lysine-specific histone demethylase 1A (Homo sapiens) (UniProt O60341); assay: Inhibition of LSD1 in human RD cells assessed as increase in H3K4me2 level at 1 uM incubated for 48 hrs by Western blot analysis; assay type: cell-based
[11] = biological target: Lysine-specific histone demethylase 1A (Homo sapiens) (UniProt O60341); assay: Inhibition of LSD1 in human MV4-11 cells assessed as increase in H3K4me2 level at 0.2 to […] incubated for 24 hrs by Western blot analysis; assay type: cell-based; conditions: dose 0.2-2.5 µM
[12] = Cytotoxicity against human derived mesenchymal stem cells assessed as residual cell viability at 1.25 uM measured after 72 hrs relative to control; assay type: toxicity, cell-based; conditions: read-out: Activity
[13] = system: RD; assay: Induction of apoptosis in human RD cells assessed as increase in caspase 3/7 level at 2 uM incubated for 24 hrs; assay type: functional, cell-based
[14] = Cytotoxicity against human AHH-1 cells assessed as residual cell viability at 1 uM measured after 72 hrs by MTT assay relative to control; assay type: toxicity, cell-based; conditions: read-out: Activity
[15] = system: RD; assay: Antiproliferative activity against human RD cells assessed as reduction in live cells at 2 uM incubated for 72 hrs by calceinAM/propidium iodide staining based fluorescence microscopy; assay type: functional, cell-based
[16] = system: MV4-11; assay: Induction of apoptosis in human MV4-11 cells assessed as accumulation of cells at sub-G1 phase incubated for 24 hrs; assay type: functional, cell-based; conditions: dose 0.2-25 µM, DDE = dose-dependent effect
[17] = system: SJRH30; assay: Antiproliferative activity against human Rh30 cells assessed as inhibition of cell growth incubated for 24 hrs; assay type: functional, cell-based; conditions: SJRH30, 24 h
[18] = system: RD; assay: Antiproliferative activity against human RD cells assessed as inhibition of cell growth incubated for 144 hrs; assay type: functional, cell-based
[19] = system: SJRH30; assay: Antiproliferative activity against human Rh30 cells assessed as inhibition of cell growth incubated for 72 hrs; assay type: functional, cell-based; conditions: SJRH30, 72 h
[20] = system: RD; assay: Antiproliferative activity against human RD cells assessed as inhibition of cell growth incubated for 72 hrs; assay type: functional, cell-based
[21] = system: MV4-11; assay: Induction of cell cycle arrest in human MV4-11 cells assessed as accumulation of cells at G1 phase at 0.2 to […] incubated for 24 hrs; assay type: functional, cell-based; conditions: dose 0.2-2.5 µM
[22] = system: SJRH30; assay: Antiproliferative activity against human Rh30 cells assessed as reduction in live cells at 2 uM incubated for 24 hrs by calceinAM/propidium iodide staining based fluorescence microscopy; assay type: functional, cell-based
[23] = biological target: Lysine-specific histone demethylase 1A (Homo sapiens) (UniProt O60341); assay: Inhibition of LSD1 in human Rh30 cells assessed as increase in H3K4me2 level at 1 uM incubated for 48 hrs by Western blot analysis; assay type: cell-based
[24] = system: SJRH30; assay: Antiproliferative activity against human Rh30 cells assessed as inhibition of cell growth incubated for 144 hrs; assay type: functional, cell-based; conditions: SJRH30, 144 h
[25] = system: RD; assay: Antiproliferative activity against human RD cells assessed as inhibition of cell growth incubated for 24 hrs; assay type: functional, cell-based
[26] = system: SJRH30; assay: Induction of apoptosis in human Rh30 cells assessed as increase in caspase 3/7 level at 2 uM incubated for 24 hrs; assay type: functional, cell-based
[27] = biological target: Lysine-specific histone demethylase 1A (Homo sapiens) (UniProt O60341); assay: Inhibition of LSD1 in human MV4-11 cells assessed as increase in CD86 expression level incubated for 24 hrs by qRT-PCR analysis; assay type: cell-based; conditions: dose 0.2-1 µM

Structure (SMILES): COc1cc2nc(NCCCN(C)C)nc(N(C)C3CCN(Cc4ccccc4)CC3)c2cc1OC
- IC50 [1]: 430 nM
- Kd [2]: 356 nM
- IC50 [3]: 670 nM
- IC50 [4]: 300 nM
- Ki [5]: 569 nM
- IC50 [6]: 2380 nM
- Ki [7]: > 100000 nM

Structure (SMILES): COc1cc2nc(NCCCN(C)C)nc(NC3CCN(C)CC3)c2cc1OC
- Kd [2]: 1490 nM
- Ki [7]: 4170 nM

Structure (SMILES): COc1cc2nc(NCCCN3CCCC3)nc(NC3CCN(Cc4ccccc4)CC3)c2cc1OC
- Kd [2]: 82 nM
- Ki [5]: 183 nM
- Ki [7]: 4010 nM

Structure (SMILES): COc1cc2nc(NCCCN3CCOCC3)nc(NC3CCN(Cc4ccccc4)CC3)c2cc1OC
- Kd [2]: 369 nM
- Ki [7]: 22600 nM

Structure (SMILES): COc1cc2nc(NCCCN(C)C)nc(NCC3CCN(Cc4ccccc4)CC3)c2cc1OC
- Kd [2]: 115 nM
- Ki [7]: 22800 nM

Structure (SMILES): COc1cc2nc(NCCCN(C)C)nc(NC3CCN(Cc4ccc5ccccc5c4)CC3)c2cc1OC
- viability at 72 h, 1 µM [8]: 96.5%
- inhibition [9]: Active
- inhibition [10]: Active
- inhibition [11]: Active
- viability at 72 h, 1.25 µM [12]: 96%
- Activity [13]: Active
- viability at 72 h, 1 µM [14]: 81.5%
- Activity [15]: Active
- Activity [16]: Dde
- IC50 [17]: 1210 nM
- IC50 [1]: 160 nM
- Kd [2]: 75 nM
- IC50 [18]: 900 nM
- IC50 [3]: 300 nM
- IC50 [19]: 910 nM
- IC50 [4]: 92 nM
- IC50 [20]: 1230 nM
- Activity [21]: Active
- Activity [22]: Active
- inhibition [23]: Active
- Ki [5]: 156 nM
- IC50 [6]: 210 nM
- IC50 [24]: 690 nM
- IC50 [25]: 2280 nM
- Ki [7]: 2930 nM
- Activity [26]: Active

Structure (SMILES): COc1cc2nc(NCCCN(C)C)nc(NCCCNc3ccccc3)c2cc1OC
- Kd [2]: 228 nM
- Ki [7]: 48300 nM

Structure (SMILES): COc1cc2nc(NCCCN(C)C)nc(NC3CCN(Cc4cccc5ccccc45)CC3)c2cc1OC
- Kd [2]: 84 nM
- Ki [5]: 212 nM
- Ki [7]: 3100 nM

Structure (SMILES): COc1cc2nc(NC3CCN(C)CC3)nc(NC3CCN(Cc4ccccc4)CC3)c2cc1OC
- Kd [2]: 82 nM
- Ki [7]: 6330 nM

Structure (SMILES): COc1cc2nc(NCCCN(C)C)nc(NC3CCN(Cc4ccccc4)C3)c2cc1OC (centres undefined)
- Kd [2]: 251 nM
- Ki [7]: 8030 nM

Structure (SMILES): COc1cc2nc(NCCCN(C)C)nc(NC3CCNCC3)c2cc1OC
- Kd [2]: 1560 nM
- Ki [7]: 4830 nM

Structure (SMILES): COc1cc2nc(NCCCN(C)C)nc(OC3CCN(Cc4ccccc4)CC3)c2cc1OC
- Kd [2]: 2850 nM
- Ki [7]: > 100000 nM

Structure (SMILES): COc1cc2nc(NCCCN(C)C)nc(NC3CCN(Cc4ccc(-c5ccccc5)cc4)CC3)c2cc1OC
- viability at 72 h, 1 µM [8]: 88.1%
- inhibition [27]: Active
- inhibition [9]: Active
- inhibition [11]: Active
- viability at 72 h, 1 µM [14]: 79.1%
- Activity [16]: Dde
- IC50 [1]: 120 nM
- Kd [2]: 81 nM
- IC50 [3]: 170 nM
- IC50 [4]: 87 nM
- Activity [21]: Active
- Ki [5]: 146 nM
- IC50 [6]: 290 nM
- Ki [7]: 1180 nM
